# Measured values as given in patent US12208118B2, “Pharmaceutical compositions for delivery of peptide” (ANYA BIOPHARM INC., priority 2017, dated 2025).
# Tests used:
# [1] = Quantification of liraglutide level in dog plasma using ELISA kit; assay type: in vivo; conditions: following subcutaneous and oral administration, dogs
# Procedure: Quantification of Liraglutide Level in Dog Plasma Using ELISA Kit
# Test formulation I: Liraglutide—Appearance: Solution for injection in a prefilled pen; Concentration: 6 mg/ml; Date of manufacture: February 2017; Date of expiry: July 2019; Storage condition: 2-8° C.; Dose: 0.6 mg/dog; Route: SC.
# Test formulation II (FA): MIRA 5 (Table 15E)+PA 2 (Table 16F)—Dose: 12 mg (one capsule)/dog; Route: Oral.
# Test formulation III (G): MIRA 5 (Table 15E)+PA 3+4 (Table 16G)—Dose: 12 mg (one capsule)/dog; Route: Oral
# The clinical signs observed are normal. Body weights of the dogs used in the study were recorded prior to dosing. During the period of dose administration, the dogs (Canis lupus familiaris. Breed: Beagle) were fasted (water allowed) overnight for approx. 12 hours prior to and 4 hours post dose administration. During dosing, the blood collection time points was at 0, 20, 30, 60, 120, 180, 240, 480 minutes post dose. […] Glucose was measured immediately after blood collection using Glucometer. […]
# Kit Protocol: Used manufacturer recommended protocol (Cat.No.KBI5020) Ver2.0—(1) Determine wells for diluted standard, blank and sample. […] Add 50 μL each of dilutions of standard (read Reagent Preparation), blank and samples into the appropriate wells, respectively. […] Then, run the microplate reader and conduct measurement at 450 nm immediately.
# [2] = Quantification of octreotide in rat plasma using ELISA kit; assay type: in vivo, S.D. rat; conditions: following subcutaneous and distal small intestine (ileum) administration, rats
# Procedure: Quantification of Octreotide in Rat Plasma Using ELISA Kit
# Test formulation I: Octreotide—Apprearance: Solution for injection; Concentration: 0.1 mg/ml; Storage condition: 2-8° C.; Dose: 10 μg/kg; Route: SC.
# Test formulation II: MIRA 3 (Table 15C)+PA 1 (Table 16C) to be dosed into distal small intestine (ileum) to anesthetized S.D. rat; Dose: 144 μg/animal; Route: distal small intestine (ileum). During the experiment, the animals were non-fasted.
# The clinical signs observed are normal. During dosing, the blood collection time points were at 0, 7, 15, 30, 45, 60 and 90 min post dose. ˜100 μl of blood was collected in a pre-filled Na-EDTA eppendorf, from retro-orbital sinus puncture. Blood was centrifuged at 5000 rpm, 5 min, 4° c. to obtain plasma.
# Source: PeninsulaLaboratories International, Inc, Cat. No. S-1341.0001
# Kit Protocol: Used manufacturer recommended protocol (Cat. No. S-1341.0001)—Into each well of the immunoplate add 25 μl antiserum (in EIA buffer). Add 25 μl EIA buffer to blank wells; Incubate at room temperature for 1 hour; Add 50 μl standard or sample (in diluent). […] Add 50 μl diluent to blank wells; Incubate at room temperature for 2 hours. […] You may read the developing blue color at 650 nm and use the data for your calculations. […] Read absorbance at 450 nm within ten minutes.
# [3] = Quantification of teriparatide in rat plasma using ELISA kit; assay type: in vivo, S.D. rats; conditions: following subcutaneous and distal small intestine (ileum) administration, rats
# Procedure: Quantification of Teriparatide in Rat Plasma Using ELISA Kit
# Test formulation I: Teriparatide; Apprearance: Solution for injection; Concentration: 600 μg/2.4 ml; Storage condition: 2-8° C.; Dose: 10 μg/animal; Route: SC.
# Test formulation II: MIRA 4 (Table 15D) plus PA1 (Table 16D) was dosed into distal small intestine (ileum) at a dose of 240 μg/animal to anesthetized rats; Dose: 240 μg/animal; Route: distal small intestine (ileum).
# Test formulation III: MIRA 1 (Table 15A) plus PA3 (Table 16E) was dosed into distal small intestine (ileum) at a dose of 240 μg/animal to anesthetized S.D. rats; Dose: 240 μg/animal; Route: distal small intestine (ileum).
# During the experiment, the animals were non-fasted. […] The clinical signs observed are normal. […]
# Kit Protocol: Used manufacturer recommended protocol (Cat.No. 60-3900)—Place a sufficient number of Streptavidin Coated Strips in a holder to run PTH standards, controls and unknown samples; Pipet 150 μL of standard, control, or sample into the designated or mapped well. […] Read the absorbance at 620 nm (see Note) within 5 minutes in a microtiter plate reader against the 0 μg/mL Standard wells as a blank; Immediately pipet 50 μL of ELISA Stop Solution into each of the wells. […]
smiles,measurement,setting,value
CCCCCCCCCCCCCCCC(=O)N[C@@H](CCC(=O)NCCCC[C@H](NC(=O)[C@H](C)NC(=O)[C@H](C)NC(=O)[C@H](CCC(N)=O)NC(=O)CNC(=O)[C@H](CCC(=O)O)NC(=O)[C@H](CC(C)C)NC(=O)[C@H](Cc1ccc(O)cc1)NC(=O)[C@H](CO)NC(=O)[C@H](CO)NC(=O)[C@@H](NC(=O)[C@H](CC(=O)O)NC(=O)[C@H](CO)NC(=O)[C@@H](NC(=O)[C@H](Cc1ccccc1)NC(=O)[C@@H](NC(=O)CNC(=O)[C@H](CCC(=O)O)NC(=O)[C@H](C)NC(=O)[C@@H](N)Cc1cnc[nH]1)[C@@H](C)O)[C@@H](C)O)C(C)C)C(=O)N[C@@H](CCC(=O)O)C(=O)N[C@@H](Cc1ccccc1)C(=O)N[C@H](C(=O)N[C@@H](C)C(=O)N[C@@H](Cc1c[nH]c2ccccc12)C(=O)N[C@@H](CC(C)C)C(=O)N[C@H](C(=O)N[C@@H](CCCNC(=N)N)C(=O)NCC(=O)N[C@@H](CCCNC(=N)N)C(=O)NCC(=O)O)C(C)C)[C@@H](C)CC)C(=O)O [Liraglutide],clinical signs,[1],normal
same,mortality,[1],no mortality observed
C[C@@H](O)[C@@H]1NC(=O)[C@H](CCCCN)NC(=O)[C@@H](Cc2c[nH]c3ccccc23)NC(=O)[C@H](Cc2ccccc2)NC(=O)[C@@H](NC(=O)[C@H](N)Cc2ccccc2)CSSC[C@@H](C(=O)N[C@H](CO)[C@@H](C)O)NC1=O [octreotide],clinical signs,[2],normal
same,mortality,[2],no mortality observed
CC[C@H](C)[C@H](NC(=O)[C@H](CCC(=O)O)NC(=O)[C@H](CO)NC(=O)[C@@H](NC(=O)[C@@H](N)CO)C(C)C)C(=O)N[C@@H](CCC(N)=O)C(=O)N[C@@H](CC(C)C)C(=O)N[C@@H](CCSC)C(=O)N[C@@H](Cc1cnc[nH]1)C(=O)N[C@@H](CC(N)=O)C(=O)N[C@@H](CC(C)C)C(=O)NCC(=O)N[C@@H](CCCCN)C(=O)N[C@@H](Cc1cnc[nH]1)C(=O)N[C@@H](CC(C)C)C(=O)N[C@@H](CC(N)=O)C(=O)N[C@@H](CO)C(=O)N[C@@H](CCSC)C(=O)N[C@@H](CCC(=O)O)C(=O)N[C@@H](CCCN=C(N)N)C(=O)N[C@H](C(=O)N[C@@H](CCC(=O)O)C(=O)N[C@@H](Cc1c[nH]c2ccccc12)C(=O)N[C@@H](CC(C)C)C(=O)N[C@@H](CCCN=C(N)N)C(=O)N[C@@H](CCCCN)C(=O)N[C@@H](CCCCN)C(=O)N[C@@H](CC(C)C)C(=O)N[C@@H](CCC(N)=O)C(=O)N[C@@H](CC(=O)O)C(=O)N[C@H](C(=O)N[C@@H](Cc1cnc[nH]1)C(=O)N[C@@H](CC(N)=O)C(=O)N[C@@H](Cc1ccccc1)C(=O)O)C(C)C)C(C)C [teriparatide],clinical signs,[3],normal
same,mortality,[3],no mortality observed
